The source of these data is patent US20260217720A1, “COMPOSITIONS USEFUL FOR MODULATING SPLICING” (Skyhawk Therapeutics, Inc., priority 2023, published 2026).

Experiment [1] has as its system ATXN3 transcripts containing exon 4. Briefly: ATXN3 Quantitative Splicing Assay (qPCR, E4E5 primers/probe). Format: cell-based. To be noted: Homo sapiens, SK-N-MC cells, 24 h treatment, read-out: ATXN3 Potency - Splicing E4E5 IC50 Mean. How it is done: Human neuroblastoma SK-N-MC cells were plated in 384-well plates at 20,000 cells/well. Twenty-four hours after plating, cells were treated with compounds for 24 h at appropriate concentrations ranging from 30 μM to 0.6 nM (0.3% DMSO). Treated cells were lysed in 15 μL of lysis buffer, and cDNA was synthesized using the Fast Advanced Cells-to-Ct kit. Two μL of each cDNA was used in qPCR reactions to confirm the exon 4 skipped transcripts of ATXN3. A second set of primers/probe E4E5 was used to detect the transcripts containing exon 4. The third set of primers/probe E8E9 was used to detect total gene level of ATXN3. The qPCR reactions were prepared in 384-well plates in 10 μL volume, using TaqMan™ Fast Advanced Master Mix with primers and probes shown in the table below. Reactions were run in a Quant Studio 6 qPCR instrument with default settings.
The primers and probes are listed below in Table 3.

The test system of another experiment is total ATXN3 protein. Briefly: ATXN3 Total Protein Assay (MSD). The format is cell-based, Human. The following applies: SK-N-MC cells, 48 hours incubation, read-out: ATXN3 Potency - Protein IC50. As for the experimental part:
Human neuroblastoma SK-N-MC cells were seeded at 10,000 cells/well in 384 well plates one day prior to compound treatment. The concentrations of compounds were tested at appropriate doses ranging from 30 μM to 0.6 nM. After incubation for 48 hours, the cells were lysed with 25 μL of lysis buffer containing protease inhibitors, and total ATXN3 protein levels were assessed by Mesoscale Discovery (MSD) assay developed with one pair of anti-ATXN3 antibodies. The capture and detect antibodies were raised in mouse and rabbit respectively. Anti-rabbit MSD-ST antibody was used for secondary antibody.
ATXN3 recombinant protein was used for standards. The readouts were captured with 35 μL of MSD read buffer and multi-array 384-well high binding plates.

For the compound `N[C@@H](COC(F)F)Cc1cc2c(NCc3cccs3)cc(Cl)nn2c1Cl` [Compound 9, (R)-6-(2-amino-3-(difluoromethoxy)propyl)-2,7-dichloro-N-(thiophen-2-ylmethyl)pyrrolo[1,2-b]pyridazin-4-amine], in experiment [1], the concentration for half-maximal inhibition (IC50) was 0.01 to 100 nM. For the compound `C[C@H](F)[C@H](N)Cc1cc2c(NCc3cccs3)cc(Cl)nn2c1Cl` [Compound 11], the IC50 in experiment [1] lay within 0.01 to 100 nM.

For `Cc1c(C[C@@H](N)[C@H](C)F)cc2c(NCc3cccs3)cc(Cl)nn12` [Compound 6, 6-((2R,3S)-2-amino-3-fluorobutyl)-2-chloro-7-methyl-N-(thiophen-2-ylmethyl)pyrrolo[1,2-b]pyridazin-4-amine], the IC50 (with total ATXN3 protein; in experiment [1]) was 101 to 500 nM throughout. On to `COC[C@H](N)Cc1cc2c(NCc3cccs3)cc(Cl)nn2c1C` [Compound 3, (R)-6-(2-amino-3-methoxypropyl)-2-chloro-7-methyl-N-(thiophen-2-ylmethyl)pyrrolo[1,2-b]pyridazin-4-amine], for which the 50% inhibitory concentration (IC50) in experiment [1] was in the range of 501 to 5000 nM. With `Cc1c(C[C@@H](N)CO)cc2c(NCc3cccs3)cc(Cl)nn12` [Compound 8, (R)-2-amino-3-(2-chloro-7-methyl-4-((thiophen-2-ylmethyl)amino)pyrrolo[1,2-b]pyridazin-6-yl) propan-1-ol], the half-inhibitory concentration (IC50) in experiment [1] is 0.01 to 100 nM. Same read-out and setting: for `C[C@H](F)[C@H](N)Cc1cc2c(NCc3cccs3)cc(Cl)nn2c1` [Compound 4, 6-((2R,3S)-2-amino-3-fluorobutyl)-2-chloro-N-(thiophen-2-ylmethyl)pyrrolo[1,2-b]pyridazin-4-amine] the value was 101 to 500 nM; for `N[C@@H](CF)Cc1cc2c(NCc3cccs3)cc(Cl)nn2c1` [Compound 7, (R)-6-(2-amino-3-fluoropropyl)-2-chloro-N-(thiophen-2-ylmethyl)pyrrolo[1,2-b]pyridazin-4-amine], 101 to 500 nM. Still for that read-out and setting: the same measure for `C[C@H](N)Cc1cc2c(NCc3cccs3)cc(Cl)nn2c1Cl` [Compound 2, (S)-6-(2-aminopropyl)-2,7-dichloro-N-(thiophen-2-ylmethyl)pyrrolo[1,2-b]pyridazin-4-amine]: 0.01 to 100 nM. In the case of `Cc1c(C[C@H](C)N)cc2c(NCc3cccs3)cc(Cl)nn12` [Compound 1, (S)-6-(2-aminopropyl)-2-chloro-7-methyl-N-(thiophen-2-ylmethyl)pyrrolo[1,2-b]pyridazin-4-amine], the IC50 (in the experiment with total ATXN3 protein; in experiment [1]) was 101 to 500 nM each time. With `Cc1c(C[C@@H](N)CF)cc2c(NCc3cccs3)cc(Cl)nn12` [Compound 5, (R)-6-(2-amino-3-fluoropropyl)-2-chloro-7-methyl-N-(thiophen-2-ylmethyl)pyrrolo[1,2-b]pyridazin-4-amine], the figures for the concentration for half-maximal inhibition (IC50) (in the experiment on total ATXN3 protein; in experiment [1]) were 101 to 500 nM and 501 to 5000 nM, respectively. `N[C@@H](CF)Cc1cc2c(NCc3cccs3)cc(Cl)nn2c1Cl` [Compound 10, (R)-6-(2-amino-3-fluoropropyl)-2,7-dichloro-N-(thiophen-2-ylmethyl)pyrrolo[1,2-b]pyridazin-4-amine]: the half-inhibitory concentration (IC50) in experiment [1] lay in the range of 0.01 to 100 nM.
